One block for each compound: values may come before it.
Experiments:
[1] = cited from earlier work; for Efficacy in MDD trials: phase 2 / phase 2b trials in MDD
CYP2A6 = target: T1, CYP2A6 (Homo sapiens, UniProt P11509); assay: Inhibition of CYP2A6 coumarin 7-hydroxylation in human liver microsomes (direct, time- and metabolism-dependent); settings: both, pH 7.4
T1 sequence (P11509 1-494): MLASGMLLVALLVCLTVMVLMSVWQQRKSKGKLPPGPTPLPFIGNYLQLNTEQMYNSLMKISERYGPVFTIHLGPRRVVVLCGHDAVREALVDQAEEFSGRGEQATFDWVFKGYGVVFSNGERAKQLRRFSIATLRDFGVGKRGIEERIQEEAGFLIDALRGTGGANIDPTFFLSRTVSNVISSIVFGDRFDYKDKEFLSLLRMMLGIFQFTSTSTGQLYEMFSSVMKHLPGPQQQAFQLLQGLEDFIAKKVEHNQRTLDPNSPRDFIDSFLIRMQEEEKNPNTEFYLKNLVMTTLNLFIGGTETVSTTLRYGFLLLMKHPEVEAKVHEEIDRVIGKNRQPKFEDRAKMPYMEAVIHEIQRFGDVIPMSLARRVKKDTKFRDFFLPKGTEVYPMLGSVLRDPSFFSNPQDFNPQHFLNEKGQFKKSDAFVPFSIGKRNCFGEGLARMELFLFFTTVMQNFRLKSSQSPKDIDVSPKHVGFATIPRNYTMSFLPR
Description: Known direct and metabolism-dependent inhibitors of CYP2A6 are included as positive controls.
Human liver microsomes from non-transplantable, donated livers are prepared and characterized at the testing facility as outlined by Pearce, R. et al., “Effects of Freezing, Thawing, and Storing Human Liver Microsomes on Cytochrome P450 Activity,” Archives of Biochemistry and Biophysics, 1996, 331 (2), 145-169 and Parkinson, A. et al., “The Effects of Gender, Age, Ethnicity and Liver Cirrhosis on Cytochrome P450 Enzyme Activity in Human Liver Microsomes and Inducibility in Cultured Human Hepatocytes,” Toxicology and Applied Pharmacology, 2004, 199 (3), 193-209. A mixed-gender pool of 200 individual human liver microsomal samples is used for this study (Sekisui XenoTech catalog number: H2610). The kinetic constants (S50 or Km) used to select marker substrate concentrations and incubation conditions are determined previously.
Incubation mixtures are prepared in bulk to obviate the need for directly pipetting very small volumes (i.e., 1 μL or less). The test article is dissolved in water and added directly to incubation mixtures.
A Tecan liquid handling system conducts all incubations. Duplicate aliquots of the buffer mixtures are automatically added to 96-well plates at the appropriate locations. […] The supernatant fractions are analyzed by liquid chromatography tandem mass spectrometry (LC-MS/MS). […]

[2] = cited from earlier work; for Help in smoking cessation: reported, nortriptyline as the sole pharmacotherapy
[3] = Qualitative solubility testing of the test article in the test system; format: physicochemical; settings: aqueous buffer; pH 7.4, potassium phosphate buffer, MgCl2, EDTA, human liver microsomes 0.0125 mg/mL; read-out: Soluble in the test system (visual comparison)
Description: Since stability of the test article solutions is not known, the stock solution and dilutions to working solutions are prepared fresh on the day of use.

[4] = cited from earlier work

SMILES: N[C@@H]1CC[C@@H](c2ccc(Cl)c(Cl)c2)c2ccccc21 [SEP-225289]
- Efficacy in MDD trials [1]: failed to differentiate versus the comparators

SMILES: CN1CCCC1c1cccnc1 (centres unmarked) [Nicotine]
- inhibition at 5 min, 300 µM (CYP2A6): 82.5%

SMILES: c1cnc2cc3c(cc2n1)[C@@H]1CNC[C@H]3C1 [varenicline]
- One year abstinence rate ([2]; smoking cessation): 23%
- 6-month abstinence rate ([2]; smoking cessation, placebo 10.6%): 27.6%

SMILES: COc1ccc(C(CN(C)C)C2(O)CCCCC2)cc1 (centres unmarked) [venlafaxine]
- Help in smoking cessation [2]: has not been shown to help

- solubility [3]: ≥ 200 µM
SMILES: Clc1ccc([C@]23CNC[C@H]2C3)cc1Cl [Amitifadine, (1R,5S)-1-(3,4-dichlorophenyl)-3-azabicyclo[3.1.0]hexane]
- Effect size in depression ([4]; depression): 0.6
- Tolerability ([4]; given by mouth twice daily for up to 12 weeks): good tolerability

SMILES: CN1Cc2cc(-c3ccc(N)nn3)ccc2[C@H](c2ccc3ccccc3c2)C1 [Liafensine]
- Efficacy in treatment resistant depression versus active comparators ([1]; two large phase 2b trials in TRD): no different from full-dose escitalopram (an SSRI) or duloxetine (an SNRI)

SMILES: CNCCC=C1c2ccccc2CCc2ccccc21 [nortriptyline]
- Help in smoking cessation [2]: increases long-term smoking cessation

SMILES: COC[C@@H]1[C@@H](c2ccc(Cl)c(Cl)c2)C[C@@H]2CC[C@H]1N2 [GSK-372475]
- Efficacy in MDD trials [1]: failed
